Measured values reported in patent US6964949B2, “Pharmaceutical compositions for promoting the growth of gram-positive bacilli and increasing the acidity in the vagina and the use thereof” (Shanghai Jiao Da Onlly Co., Ltd., priority 2000, dated 2005).

Tests used:
Experiment in all cases: Experimental Example 1: bacterial vaginosis specimen suspension cultured in the composition, Gram smear
Type in all cases: cell-based
Conditions in all cases: 10.0% sucrose, 1.0% yeast extract, 1.6% xanthan gum, pH 5.0, anaerobic, 37° C.
[1] = system: Gram-negative cocci
Experimental: (§1) • (1) The preparation of the composition: Sucrose was used to prepare the following composition according to the method mentioned above: sucrose 10.0% (W/V), yeast extract 1.0% (W/V), Xanthan gum 1.6% (W/V), pH 5.0; then filled the composition into the tubes after sterilization, with each tube containing 5 ml, and pre-reduced for use. • (2) Specimen suspension: Vaginal secretion was taken from one of the patients suffering from typical bacterial vaginosis with a cotton swab, then the swab was washed in 2 ml sterilized Trypcase-soy Broth immediately, and thus the specimen suspension was ready. […] The tubes were placed in an incubator for cultivation, at 37° C., anaerobically. Then, culture samples were taken from the tubes at 10 hours and 24 hours later respectively. The Gram smears of the samples were observed and the pH values of the samples were measured.

[2] = system: Gram-positive cocci
Experimental: as §1

[3] = system: Gram-positive bacilli
Experimental: as §1

[4] = system: Gram-negative bacilli
Experimental: as §1

OC[C@H]1O[C@@](CO)(O[C@H]2O[C@H](CO)[C@@H](O)[C@H](O)[C@H]2O)[C@@H](O)[C@@H]1O [Sucrose, sucrose]
Bacteria G − c (Gram-negative cocci), 24 hours-culture [1]: G − c, + (1-9 bacteria per field of vision under oil-immersion lens) | Bacteria G + c (Gram-positive cocci), 24 hours-culture [2]: G + C, ++ (About 10-99 bacteria per field of vision under oil-immersion lens) | Bacteria G + b (Gram-positive bacilli), 10 hours-culture ([3]; 10 hours): G + b, +++ (About 100 bacteria or more per field vision under oil-immersion lens, even uncountable) | Bacteria G + b (Gram-positive bacilli), 24 hours-culture ([3]; 24 hours): G + b, ++++ | Bacteria G − b (Gram-negative bacilli), 10 hours-culture ([4]; 10 hours): G − b, ++ (About 10-99 bacteria per field of vision under oil-immersion lens) | Bacteria G − b (Gram-negative bacilli), 24 hours-culture ([4]; 24 hours): G − b, ++ (About 10-99 bacteria per field of vision under oil-immersion lens)
